Measurements reported in patent US6362225B1 (priority 1999, dated 2002).

What was measured:
sore throat = assay: Lysine nasal inhalation or throat spray for sore throat; type: in vivo, human; details: one test subject
Excerpt: A test subject used nasal inhalation of lysine every three hours to treat a sore throat and reported relief after one day.
Another test subject who has suffered from throat infections for many years used the lysine spray directly into the throat at the first sign of soreness on at least four occassions. The treatment was repeated every three to four hours for two days.

cold virus [1] = assay: Nasal spray of lysine after exposure to persons with severe colds; type: in vivo, human; details: nasal spray continued for at least three days after exposure to persons with severe colds
Excerpt: The administration of lysine in the form of a nasal spray was used by other test subjects after being exposed to persons with severe colds, that is persons who were frequently coughing and sneezing.

[2] = cited from earlier work
cold virus [3] = assay: Nasal spray of lysine solution in test subjects with colds or flu; type: in vivo, human
canker sore = assay: Lysine solution applied directly to canker sores and cold sores; type: in vivo, human
Excerpt: Another test subject with a long history of canker sore outbreaks reported that once one canker sore appeared several more usually followed within a day or two. These sores were quite painful and often lasted from five to ten days. The subject was given the lysine solution and told to apply it directly to the lesion. […] The application was repeated every three or four hours until the canker sore was completely healed. […] Since this subject has been using the lysine solution the outbreaks of canker sores are infrequent and are healed very quickly.
As shown above, the use of lysine by targeting the infected areas may shorten the duration of the outbreak and may even prevent illnesses such as colds and sore throats if used directly after contact with an infected person or at the onset of symptoms. Essentially the use of the lysine solution or composition in the nose, mouth and/or lungs, or other specific areas of the body may represent a topical application of lysine to the infected area. Thus, the duration of an infection may be considerably lessened by applying lysine to that infected area.

herpes simplex II = assay: Lysine nasal spray for herpes outbreaks; type: in vivo, human
[4] = system: upper respiratory infections settled in the lungs; assay: Lysine solution by nebulizer directly into the lungs; type: in vivo, human; details: one test subject
Excerpt: Often upper respiratory infections settle in the lungs and can cause prolonged discomfort, coughing and heavy chest congestion.

[5] = ten test subjects, cold virus, […], 3500 mg lysine in 1.5 oz. 0.65% saline, spray twice in each nostril every three hours

## Cl.NCCCC[C@H](N)C(=O)O [lysine, L-lysine monohydrochloride]
Sore throat; nasal inhalation every three hours
  Time to relief of sore throat: one
Sore throat; spray directly into the throat at first sign of soreness, every three to four hours for two days, at least four occasions
  Development of full sore throat: never occurred
Cold virus [1]
  Cold symptoms after exposure: never felt cold symptoms at all
[2]; general statement
  Toxic levels: No toxic levels
[2]; high doses ingested as tablets
  Adverse side effects of ingested lysine: gastric distress
Cold virus [3]; colds or flu, intervals lengthened to six or more hours, compared with one to four hours
  Effectiveness of treatment at lengthened intervals: considerably less effective
Cold virus [3]; [5]
  Number of subjects reporting relief obtained in 1 day: 5
  Number of subjects reporting relief obtained in 2 days: 3
  Number of subjects reporting relief obtained in 3 days: 2
Canker sore; one test subject, application repeated every three or four hours
  Secondary canker sore lesions: no secondary lesions developed
Canker sore; one test subject, application repeated every three or four hours, sores previously lasted five to ten days
  Time until canker sore completely healed: three to five
Canker sore; one test subject, solution applied directly to the lesion
  Pain associated with canker sore: alleviated as soon as the solution was applied
Canker sore; solution applied directly, in contrast to ingestion of lysine tablets alone
  Healing response of cold sores and canker sores: fast healing response
Herpes simplex II; one test subject with twenty year history, nasal spray every three hours for one day
  Effect on herpes simplex II outbreak: stopped the outbreak
Herpes simplex II; one test subject, nasal spray plus lysine tablets, compared with tablets alone
  Response of genital herpes outbreaks: responded much faster than with the tablets alone
Herpes simplex II; same test subject, regular use of the nasal spray
  Prevention of herpes outbreaks: prevented herpes outbreaks to the point of almost eliminating them altogether
[4]
  Onset of lessening of lung symptoms: lessened almost immediately
  Time until symptoms cleared up completely: one to three
